Like-named read-outs stand apart in the source and are kept apart here.
Tests used:
[1] = liver, water control = 0%
[2] = mouse, in vivo; cited from earlier work
[3] = in vivo; cited from earlier work
[4] = system: Mycobacterium tuberculosis; conditions: 10 millimolar

Structure (SMILES)	toxin removal ([1]; intravenous)	toxin removal ([1]; oral)	decrease of incidence or size of hepatic nodules or tumors [2]	absorption after oral ingestion [3]	CFU/ml reduced to [4]
N[C@@H](CCC(=O)N[C@@H](CS)C(=O)NCC(=O)O)C(=O)O [Plain glutathione, glutathione]	70%	10%	no benefit	not absorbed	
CC(=O)N[C@@H](CS)C(=O)O [NAC, N-acetyl cysteine]					8,000 CFU/ml

Source: patent US20130202681A1 (priority 2012, published 2013)
